From ChEMBL document CHEMBL6103573, “Discovery of novel thienopyridine indole derivatives as inhibitors of tubulin polymerization targeting the colchicine-binding site with potent anticancer activities” (Eur J Med Chem, 2025)
Activity calls are given as the source filed them. No cut-off for these calls is given here.

Experiments:
MGC-803 [1] = test: Induction of apoptosis in human MGC-803 cells assessed as late apoptotic cells at 2.0 nmol/L incubated for 48 hrs by Annexin V-FITC/propidium iodide staining based flow cytometry analysis (reference value: 2.22 %); format: functional
MGC-803 [2] = test: Antitumor activity against human MGC-803 cells xenografted in female BALB/c-nu nude mouse assessed as increase in apoptotic cells at 5 mg/kg, po administrated every other day for 11 times and measured after 21 days by TUNEL staining based assay; format: functional, organism-based; settings: time 21.0 day
HGC-27 [3] = test: Induction of apoptosis in human HGC-27 cells assessed as increase in nuclei brightness at 0.25 to 2.0 nmol/L incubated for 48 hrs by DAPI staining based analysis; format: functional, cell-based; settings: dose 0.25-2 nmol/L
HGC-27 [4] = test: Antiproliferative activity against human HGC-27 cells assessed as inhibition of cell proliferation incubated for 48 hrs by MTT assay; format: functional, cell-based; settings: HGC-27, 48 h
Tubulin (Homo sapiens) [5] = molecular target: T1, Tubulin (Homo sapiens) (UniProt P68371+Q9H4B7+P0DPH7+P68366+Q13509+Q71U36+P04350+Q3ZCM7+P07437+P68363+Q9BQE3+Q6PEY2+Q13885+Q9BVA1+Q9BUF5); test: Disruption of microtubule network in human HGC-27 cells assessed as disruption of mitosis at 0.25 to 2.0 nmol/L incubated for 24 hrs by DAPI staining based fluorescence microscopic analysis; format: cell-based; settings: dose 0.25-2 nmol/L
HGC-27 [6] = test: Antiproliferative activity against human HGC-27 cells assessed as survival rate at 2 nmol/L measured after 48 hrs by MTT assay relative to control; format: functional; settings: read-out: Survival
NCI-N87 = test: Antiproliferative activity against human NCI-N87 cells assessed as inhibition of cell proliferation incubated for 48 hrs by MTT assay; format: functional, cell-based; settings: NCI-N87, 48 h
HUVEC [7] = test: Anti-vascular activity in HUVEC cells assessed as reduction in length of tubular network incubated for 5 hrs by Matrigel based inverted microscopic analysis; format: functional, cell-based; settings: Homo sapiens, dose 0.5-2 nmol/L
HGC-27 [8] = test: Induction of apoptosis in human HGC-27 cells assessed as late apoptotic cells at 1.5 nmol/L incubated for 48 hrs by Annexin V-FITC/propidium iodide staining based flow cytometry analysis (reference value: 3.70 %); format: functional
MGC-803 [9] = test: Anti-migratory activity against human MGC-803 cells assessed as decrease in cell migration at 1 nmol/L measured after 24 hrs by wound healing assay relative to control; format: functional; set-up: scale not given: the % may be the effect or the level left
ECa-109 cell line = test: Antiproliferative activity against human EC109 cells assessed as inhibition of cell proliferation incubated for 48 hrs by MTT assay; format: functional, cell-based; settings: ECa-109, 48 h
MGC-803 [10] = test: Antiproliferative activity against human MGC-803 cells assessed as survival rate at 2 nmol/L measured after 48 hrs by MTT assay relative to control; format: functional; settings: read-out: Survival
HUVEC [11] = test: Anti-vascular activity in HUVEC cells assessed as reduction in width of tubular network incubated for 5 hrs by Matrigel based inverted microscopic analysis; format: functional, cell-based; settings: Homo sapiens, dose 0.5-2 nmol/L
HGC-27 [12] = test: Inhibition of colony formation in human HGC-27 cells incubated for 7 days by crystal violet staining based colony formation assay; format: functional, cell-based; settings: dose 0.1-0.5 nmol/L, time 7.0 day
HUVEC [13] = test: Anti-vascular activity in HUVEC cells assessed as reduction in capillary-like tubules with multi-center junctions incubated for 5 hrs by Matrigel based inverted microscopic analysis; format: functional, cell-based; settings: Homo sapiens, dose 0.5-2 nmol/L
[14] = molecular target: T2, Tubulin beta (Homo sapiens) (UniProt P68371+Q9H4B7+Q13509+P04350+Q3ZCM7+P07437+Q13885+Q9BVA1+Q9BUF5+A6NNZ2); test: Competitive binding affinity to beta-tubulin colchicine binding site in human HGC-27 cells assessed as reduction in EBI-beat tubulin adduct to beta-tubulin ratio preincubated for 2 hrs followed by EBI addition and measured after 2 hrs by Western blotting analysis; format: cell-based; settings: dose 0.1-1 µmol/L, time 4.0 hrs
HUVEC [15] = test: Anti-migratory activity against HUVEC cells assessed as wound healing rate at 0.5 nmol/L measured after 24 hrs by wound healing assay (reference value: 97 %); format: functional, Homo sapiens
HGC-27 [16] = test: Anti-migratory activity against human HGC-27 cells assessed as reduction in wound healing area measured after 24 hrs by wound healing assay; format: functional, cell-based; settings: dose 0.5-1 nmol/L
MGC-803 [17] = test: Induction of apoptosis in human MGC-803 cells assessed as increase in cleaved PARP expression at 0.25 to 2.0 nmol/L incubated for 48 hrs by Western blotting analysis; format: functional, cell-based; settings: dose 0.25-2 nmol/L
MGC-803 [18] = test: Antiproliferative activity against human MGC-803 cells assessed as cell viability at 1 to 2 nmol/L incubated for 48 hrs by MTT assay (reference value: 92 %); format: functional; settings: dose 1-2 nmol/L, at 1 to 2 nM
[19] = Toxicity in female BALB/c-nu nude mouse xenografted with human MGC-803 cells assessed as change in heart morphology at 5 mg/kg, po administrated every other day for 11 times and measured after 21 days by hematoxylin and eosin staining based analysis; format: organism-based; settings: in vivo, 504 h, time 21 day
Tubulin (Homo sapiens) [20] = molecular target: T1, Tubulin (Homo sapiens); test: Disruption of microtubule network in human MGC-803 cells assessed as reduction in filamentous microtubule structure formation at 0.25 to 2.0 nmol/L incubated for 24 hrs by DAPI staining based fluorescence microscopic analysis; format: cell-based; settings: dose 0.25-2 nmol/L
HUVEC [21] = test: Anti-angiogenesis activity in HUVEC cells assessed as reduction in cell viability incubated from 12 to 48 hrs by MTT assay; format: functional, cell-based; settings: Homo sapiens, dose < 2.0 nmol/L, time 12-48 hrs
HUVEC [22] = test: Anti-angiogenesis activity in HUVEC cells assessed as effect on cell vitality at <= 1 nmol/L measured within 24 hrs; format: functional, cell-based; settings: Homo sapiens
HGC-27 [23] = test: Induction of apoptosis in human HGC-27 cells assessed as early apoptotic cells at 0.5 nmol/L incubated for 48 hrs by Annexin V-FITC/propidium iodide staining based flow cytometry analysis (reference value: 2.04 %); format: functional
MGC-803 [24] = test: Inhibition of colony formation in human MGC-803 cells incubated for 7 days by crystal violet staining based colony formation assay; format: functional, cell-based; settings: dose 0.1-0.5 nmol/L, time 7.0 day
Tubulin (Homo sapiens) [25] = molecular target: T1, Tubulin (Homo sapiens); test: Disruption of microtubule network in human HGC-27 cells assessed as appearance of multinucleation at 0.25 to 2.0 nmol/L incubated for 24 hrs by DAPI staining based fluorescence microscopic analysis; format: cell-based; settings: dose 0.25-2 nmol/L
[26] = molecular target: T2, Tubulin beta (Homo sapiens); test: Competitive binding affinity to beta-tubulin colchicine binding site in human HGC-27 cells assessed as inhibition of EBI-beta-tubulin adduct band formation by measuring reduction in adduct band intensity preincubated for 2 hrs followed by EBI addition and measured after 2 hrs by Western blotting analysis; format: cell-based; settings: dose 0.1-1 µmol/L, time 4.0 hrs
MGC-803 [27] = test: Induction of cell cycle arrest at G2 phase in human MGC-803 cells assessed as downregulation of Cyclin B1 level at 0.25 to 2.0 nmol/L measured after 48 hrs by Western blot analysis; format: functional, cell-based; settings: dose 0.25-2 nmol/L
MGC-803 [28] = test: Induction of apoptosis in human MGC-803 cells assessed as early apoptotic cells at 2.0 nmol/L incubated for 48 hrs by Annexin V-FITC/propidium iodide staining based flow cytometry analysis (reference value: 0.83 %); format: functional
[29] = Toxicity in female BALB/c-nu nude mouse xenografted with human MGC-803 cells assessed as change in liver morphology at 5 mg/kg, po administrated every other day for 11 times and measured after 21 days by hematoxylin and eosin staining based analysis; format: organism-based; settings: in vivo, 504 h, time 21 day
MGC-803 [30] = test: Antitumor activity against human MGC-803 cells xenografted in female BALB/c-nu nude mouse assessed as increase in cleaved PARP level in tumor at 5 mg/kg, po administrated […] for 11 times and measured after 21 days by immunohistochemical analysis; format: functional, organism-based; settings: time 21.0 day

Structure (SMILES): CN(c1ccc2c(ccn2C)c1)c1nc(N2CCCC2)nc2sccc12
- Activity (MGC-803 [1]): 8.06%
- Activity (MGC-803 [2]): Active
- Activity (HGC-27 [3]): Active
- IC50 (HGC-27 [4]): 1.82 nM
- Activity (Tubulin (Homo sapiens) [5]): Active
- viability at 0.002 µM (HGC-27 [6]): 48%
- IC50 (NCI-N87): 2.14 nM
- Activity (HUVEC [7]): Dose-dependent-effect
- Activity (HGC-27 [8]): 5.22%
- Activity (MGC-803 [9]): 24%
- IC50 (ECa-109 cell line): 2.19 nM
- viability at 0.002 µM (MGC-803 [10]): 35%
- Activity (HUVEC [11]): Dose-dependent-effect
- inhibition (HGC-27 [12]): Dose-dependent-effect
- Activity (HUVEC [13]): Dose-dependent-effect
- Activity [14]: Dose-dependent-effect
- Activity (HUVEC [15]): 82%
- Activity (HGC-27 [16]): Dose-dependent-effect
- Activity (MGC-803 [17]): Active
- Activity (MGC-803 [18]): 39%
- Activity [19]: Non-toxic
- Activity (Tubulin (Homo sapiens) [20]): Active
- Activity (HUVEC [21]): Dose-dependent-effect
- Activity (HUVEC [22]): Active; Minimal Impact Observed
- Activity (HGC-27 [23]): 4.64%
- inhibition (MGC-803 [24]): Dose-dependent-effect
- Activity (Tubulin (Homo sapiens) [25]): Active
- Activity [26]: Dose-dependent-effect
- Activity (MGC-803 [27]): Active
- Activity (MGC-803 [28]): 54.93%
- Activity [29]: Non-toxic
- Activity (MGC-803 [30]): Active
